Test results: US5723494A, “Derivatives of glutamic and aspartic acids, a method of preparing them, and their use as drugs for enhancing memory and learning” (priority 1993, dated 1998)

Experiments:
[1] = Memory-enhancement activity in the active avoidance test in the rat; format: in vivo, rat (male Wistar); details: for % variation vs controls, avoidance learning / % variation vs controls, avoidance memory / % variation vs controls, escape response / % variation vs controls, shock response / % variation vs controls, total avoidance response / Average % avoidance learning, last 10 TR / Average % avoidance memory, first 10 TR/40 TR / Average % escape response / Average % shock response / Average % total avoidance response, 40 trials: fifth day
Excerpt: 3) Memory-enhancement activity in the "active avoidance" test in the rat
Male Wistar rats which weighed about 200 g and had not fasted were used. The method consisted of making the animal understand that, in order to avoid a shock, it must go from one compartment of the equipment used (a shuttle box) to the other. For this reason it is defined as active avoidance (because the animal takes action to avoid the punishment).
In this test it is also possible to discriminate between two different parameters: memory and learning.
The equipment consisted of a cage divided into two portions by a wall with an opening at floor level to enable the animal to go from one portion of the cage to the other.
The reinforcement, that is, the reason which forced the rat to become conditioned to the sound and to the light, consisted of an electrical stimulus coming from the grid floor of the cage (an Unconditioned stimulus). The floor of the cage was constituted by a metal grid for the passage of the current and could rock so that, each time the rat passed through the dividing hole, the floor tilted, due to its weight, interrupting the current.
The test lasted for five days. On the first day, the animals were subjected to the first session of 40 cycles with an interval of 30 sec between cycles (duration of the session=20 minutes).
For each 30 sec cycle, a light stimulus and a sound stimulus lasting for 3 seconds were applied, followed by the 0.4 mA shock, which also lasted for 3 sec.
At the end of the first day, the rats were selected randomly in homogeneous groups and treated with the product under test or with physiological solutions (controls).
On subsequent days, the rats underwent the first treatment 15 minutes before the session and the second treatment at the end of the day. In 5 days of tests the animal thus underwent 8 treatments in total.
The 40 cycles were divided into 4 sessions each of 10 cycles for the 5 days' duration of the test.
The performance of each animal was evaluated as: % shock response, % escape response; % total avoidance response (these refer to all 40 cycles of each day); memory, as % of the avoidance responses in the first session of each day (the first 10 cycles); learning: as % of avoidance responses in the fourth session of each day (the last 10 cycles).
All the % were calculated on regression lines calculated on the basis of the responses obtained daily for each individual parameter, on the fifth (last) day of the experiment.
The results are expressed as the percentage variation of the averages of the individual responses obtained for the treated groups in comparison with the control group. The results thus calculated are given in Table 3 below, which gives the statistical analysis between the treatment groups against the controls, carried out by analysis of the relative variance with respect to the overall results for the 5 days.

[2] = system: excitor amino-acid receptors of cortical membranes ("forebrain") of rats; test: Inhibition of the specific binding of [3H]-glutamate to rat forebrain membranes
In short: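 Forebrain membranes (cortex plus hippocampus, striatum removed) in Tris-HCl pH 7.1 incubated with ³H-L-glutamate and test compound for 20 min at 37 °C. Filtration on glass-fibre filters, scintillation counting; specific binding = total minus binding with 3.6 mM cold L-glutamate.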

SMILES: CC1(C)CCC(NC(=O)[C@@H](N)CCC(=O)O)CC1 [Compound 23, 1-(4,4-dimethylcyclohexyl)-L-isoglutamine[4-amino-5-(4',4'-dimethylcyclohexylamine)-5-oxopentanoic acid (S)]]
- % variation vs controls, avoidance learning ([1]; 1 mg/kg i.p. 2/day): +17.2%
- % variation vs controls, avoidance memory ([1]; 1 mg/kg i.p. 2/day): -16.7%
- % variation vs controls, escape response ([1]; 1 mg/kg i.p. 2/day): -11.1%
- % variation vs controls, shock response ([1]; 1 mg/kg i.p. 2/day): -8.6%
- % variation vs controls, total avoidance response ([1]; 1 mg/kg i.p. 2/day): +33.3%
- Average % avoidance learning, last 10 TR ([1]; 1 mg/kg i.p. 2/day): 34%
- Average % avoidance memory, first 10 TR/40 TR ([1]; 1 mg/kg i.p. 2/day): 10%
- Average % escape response ([1]; 1 mg/kg i.p. 2/day): 8%
- Average % shock response ([1]; 1 mg/kg i.p. 2/day): 64%
- Average % total avoidance response, 40 trials ([1]; 1 mg/kg i.p. 2/day): 26%
- % variation vs controls, avoidance learning ([1]; 3 mg/kg i.p. 2/day): +82.7%
- % variation vs controls, avoidance memory ([1]; 3 mg/kg i.p. 2/day): +142%
- % variation vs controls, escape response ([1]; 3 mg/kg i.p. 2/day): +144%
- % variation vs controls, shock response ([1]; 3 mg/kg i.p. 2/day): -51.4%
- % variation vs controls, total avoidance response ([1]; 3 mg/kg i.p. 2/day): +109%
- Average % avoidance learning, last 10 TR ([1]; 3 mg/kg i.p. 2/day): 53%
- Average % avoidance memory, first 10 TR/40 TR ([1]; 3 mg/kg i.p. 2/day): 29%
- Average % escape response ([1]; 3 mg/kg i.p. 2/day): 22%
- Average % shock response ([1]; 3 mg/kg i.p. 2/day): 34%
- Average % total avoidance response, 40 trials ([1]; 3 mg/kg i.p. 2/day): 44%
- % variation vs controls, avoidance learning ([1]; 10 mg/kg i.p. 2/day): +145%
- % variation vs controls, avoidance memory ([1]; 10 mg/kg i.p. 2/day): +183%
- % variation vs controls, escape response ([1]; 10 mg/kg i.p. 2/day): +241%
- % variation vs controls, shock response ([1]; 10 mg/kg i.p. 2/day): -81.4%
- % variation vs controls, total avoidance response ([1]; 10 mg/kg i.p. 2/day): +166%
- Average % avoidance learning, last 10 TR ([1]; 10 mg/kg i.p. 2/day): 71%
- Average % avoidance memory, first 10 TR/40 TR ([1]; 10 mg/kg i.p. 2/day): 34%
- Average % escape response ([1]; 10 mg/kg i.p. 2/day): 31%
- Average % shock response ([1]; 10 mg/kg i.p. 2/day): 13%
- Average % total avoidance response, 40 trials ([1]; 10 mg/kg i.p. 2/day): 56%
- Shock responses (in words) ([1]; rat, i.p.): greatly reduced
- Total avoidance responses (in words) ([1]; rat, i.p.): significantly increases the total avoidance responses in a dose-dependent manner
- Activity in inhibiting the binding of glutamate (in words) ([2]; rat cortical membranes): considerable activity in inhibiting the binding of the glutamate
- IC50 ([2]; rat forebrain membranes, 20 min, 37° C., pH 7.1): 13.8 µM
